Measurements reported in article PMC3017236 (Clinical cancer research : an official journal of the …, 2010).

Target: T1, OCT1 (Homo sapiens, UniProt O15245)
T1 sequence (O15245 1-554): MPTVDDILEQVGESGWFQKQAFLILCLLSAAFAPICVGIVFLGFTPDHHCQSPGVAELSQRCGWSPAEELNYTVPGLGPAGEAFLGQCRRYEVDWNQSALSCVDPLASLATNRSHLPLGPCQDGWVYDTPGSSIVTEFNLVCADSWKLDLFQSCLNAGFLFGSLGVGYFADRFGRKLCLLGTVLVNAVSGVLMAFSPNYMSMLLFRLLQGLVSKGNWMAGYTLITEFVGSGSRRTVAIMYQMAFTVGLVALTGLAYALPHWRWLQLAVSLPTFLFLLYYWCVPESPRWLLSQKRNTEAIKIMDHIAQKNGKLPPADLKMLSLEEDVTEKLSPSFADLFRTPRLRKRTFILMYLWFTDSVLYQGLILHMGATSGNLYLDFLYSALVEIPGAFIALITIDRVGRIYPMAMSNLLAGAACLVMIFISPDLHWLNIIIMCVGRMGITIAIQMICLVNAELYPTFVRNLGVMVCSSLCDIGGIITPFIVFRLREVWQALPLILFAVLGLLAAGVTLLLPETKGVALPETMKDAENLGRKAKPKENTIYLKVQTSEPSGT
Experiment: Uptake in HEK-293 cells transfected with OCT1 vs empty vector
Format: in vitro ADME
Settings: HEK-293/OCT1

Question: Which Transport by transporter does the source give for `C#Cc1cccc(Nc2ncnc3cc(OCCOC)c(OCCOC)cc23)c1` [erlotinib, Erlotinib] here?
Answer: The Transport by transporter was “not found to transport”.
